Source: ChEMBL document CHEMBL5543142, “Discovery of YFJ-36: Design, Synthesis, and Antibacterial Activities of Catechol-Conjugated β-Lactams against Gram-Negative Bacteria” (J Med Chem, 2024)

How the values were obtained:
Escherichia coli [1] = experiment: Antibacterial activity against ESBL-producing multidrug-resistant Escherichia coli clinical isolate 14-1 assessed as inhibition of bacterial growth incubated for 18 to 20 hrs by two fold serial dilution assay; format: functional; conditions: time 18-20 hrs
Escherichia coli [2] = experiment: Antibacterial activity against ESBL-producing multidrug-resistant Escherichia coli clinical isolate 14-2 assessed as inhibition of bacterial growth incubated for 18 to 20 hrs by two fold serial dilution assay; format: functional; conditions: time 18-20 hrs
Escherichia coli [3] = experiment: Antibacterial activity against ESBL-producing multidrug-resistant Escherichia coli clinical isolate 14-4 assessed as inhibition of bacterial growth incubated for 18 to 20 hrs by two fold serial dilution assay; format: functional; conditions: time 18-20 hrs
Klebsiella pneumoniae [4] = experiment: Antibacterial activity against KPC-2 producing multidrug-resistant Klebsiella pneumoniae clinical isolate 15-1 assessed as inhibition of bacterial growth incubated for 18 to 20 hrs by two fold serial dilution assay; format: functional; conditions: time 18-20 hrs
Klebsiella pneumoniae [5] = experiment: Antibacterial activity against KPC-2 producing multidrug-resistant Klebsiella pneumoniae clinical isolate 15-2 assessed as inhibition of bacterial growth incubated for 18 to 20 hrs by two fold serial dilution assay; format: functional; conditions: time 18-20 hrs
Klebsiella pneumoniae [6] = experiment: Antibacterial activity against KPC-2 producing multidrug-resistant Klebsiella pneumoniae clinical isolate 15-5 assessed as inhibition of bacterial growth incubated for 18 to 20 hrs by two fold serial dilution assay; format: functional; conditions: time 18-20 hrs
Escherichia coli [7] = experiment: Antibacterial activity against Escherichia coli ATCC35218 assessed as inhibition of bacterial growth incubated for 18 to 20 hrs by two fold serial dilution assay; format: functional; conditions: time 18-20 hrs
Pseudomonas aeruginosa [8] = experiment: Antibacterial activity against IMP-4 producing multidrug-resistant Pseudomonas aeruginosa clinical isolate 17-13 assessed as inhibition of bacterial growth incubated for 18 to 20 hrs by two fold serial dilution assay; format: functional; conditions: time 18-20 hrs
Pseudomonas aeruginosa [9] = experiment: Antibacterial activity against IMP-4 producing multidrug-resistant Pseudomonas aeruginosa clinical isolate 17-1 assessed as inhibition of bacterial growth incubated for 18 to 20 hrs by two fold serial dilution assay; format: functional; conditions: time 18-20 hrs
Pseudomonas aeruginosa [10] = experiment: Antibacterial activity against IMP-4 producing multidrug-resistant Pseudomonas aeruginosa clinical isolate 19-17 assessed as inhibition of bacterial growth incubated for 18 to 20 hrs by two fold serial dilution assay; format: functional; conditions: time 18-20 hrs
Acinetobacter baumannii [11] = experiment: Antibacterial activity against OXA-23 producing multidrug-resistant Acinetobacter baumannii clinical isolate 17-2 assessed as inhibition of bacterial growth incubated for 18 to 20 hrs by two fold serial dilution assay; format: functional; conditions: time 18-20 hrs
Acinetobacter baumannii [12] = experiment: Antibacterial activity against OXA-23 producing multidrug-resistant Acinetobacter baumannii clinical isolate 17-3 assessed as inhibition of bacterial growth incubated for 18 to 20 hrs by two fold serial dilution assay; format: functional; conditions: time 18-20 hrs
Pseudomonas aeruginosa [13] = experiment: Antibacterial activity against IMP-4 producing multidrug-resistant Pseudomonas aeruginosa clinical isolate 19-5 assessed as inhibition of bacterial growth incubated for 18 to 20 hrs by two fold serial dilution assay; format: functional; conditions: time 18-20 hrs
Pseudomonas aeruginosa [14] = experiment: Antibacterial activity against IMP-4 producing multidrug-resistant Pseudomonas aeruginosa clinical isolate 19-1 assessed as inhibition of bacterial growth incubated for 18 to 20 hrs by two fold serial dilution assay; format: functional; conditions: time 18-20 hrs
Acinetobacter baumannii [15] = experiment: Antibacterial activity against OXA-23 producing multidrug-resistant Acinetobacter baumannii clinical isolate 17-5 assessed as inhibition of bacterial growth incubated for 18 to 20 hrs by two fold serial dilution assay; format: functional; conditions: time 18-20 hrs
Acinetobacter baumannii [16] = experiment: Antibacterial activity against OXA-23 producing multidrug-resistant Acinetobacter baumannii clinical isolate 17-6 assessed as inhibition of bacterial growth incubated for 18 to 20 hrs by two fold serial dilution assay; format: functional; conditions: time 18-20 hrs
Acinetobacter baumannii [17] = experiment: Antibacterial activity against OXA-23 producing multidrug-resistant Acinetobacter baumannii clinical isolate 17-7 assessed as inhibition of bacterial growth incubated for 18 to 20 hrs by two fold serial dilution assay; format: functional; conditions: time 18-20 hrs
Acinetobacter baumannii [18] = experiment: Antibacterial activity against OXA-23 producing multidrug-resistant Acinetobacter baumannii clinical isolate 17-8 assessed as inhibition of bacterial growth incubated for 18 to 20 hrs by two fold serial dilution assay; format: functional; conditions: time 18-20 hrs
Klebsiella pneumoniae [19] = experiment: Antibacterial activity against KPC-2 producing multidrug-resistant Klebsiella pneumoniae clinical isolate 15-3 assessed as inhibition of bacterial growth incubated for 18 to 20 hrs by two fold serial dilution assay; format: functional; conditions: time 18-20 hrs
Escherichia coli [20] = experiment: Antibacterial activity against Escherichia coli NCTC-13353 assessed as inhibition of bacterial growth incubated for 18 to 20 hrs in presence of CAMHB medium by two fold serial dilution assay; format: functional; conditions: time 18-20 hrs
Escherichia coli [21] = experiment: Antibacterial activity against Escherichia coli ATCC-35218 assessed as inhibition of bacterial growth incubated for 18 to 20 hrs in presence of CAMHB medium by two fold serial dilution assay; format: functional; conditions: time 18-20 hrs
Klebsiella pneumoniae [22] = experiment: Antibacterial activity against Klebsiella pneumoniae ATCC BAA-1898 assessed as inhibition of bacterial growth incubated for 18 to 20 hrs in presence of CAMHB medium by two fold serial dilution assay; format: functional; conditions: time 18-20 hrs
Escherichia coli [23] = experiment: Antibacterial activity against Escherichia coli NCTC-13353 assessed as inhibition of bacterial growth incubated for 18 to 20 hrs in presence of iron-depleted CAMHB medium by two fold serial dilution assay; format: functional; conditions: time 18-20 hrs
Escherichia coli [24] = experiment: Antibacterial activity against Escherichia coli ATCC-35218 assessed as inhibition of bacterial growth incubated for 18 to 20 hrs in presence of iron-depleted CAMHB medium by two fold serial dilution assay; format: functional; conditions: time 18-20 hrs
Klebsiella pneumoniae [25] = experiment: Antibacterial activity against Klebsiella pneumoniae ATCC BAA-1898 assessed as inhibition of bacterial growth incubated for 18 to 20 hrs in presence of iron-depleted CAMHB medium by two fold serial dilution assay; format: functional; conditions: time 18-20 hrs
Escherichia coli [26] = experiment: Antibacterial activity against Escherichia coli ATCC-35218 infected in ICR mouse assessed as inhibition of bacterial growth at iv after 1 and 5 hour of post-infection measured after 7 days; format: functional; conditions: ATCC-35218, 168 h, time 7 day
Acinetobacter baumannii [27] = experiment: Antibacterial activity against multidrug-resistant Acinetobacter baumannii BM-2023-D2-010 infected in ICR mouse assessed as inhibition of bacterial growth at iv after 1 and 5 hour of post-infection measured after 7 days; format: functional; conditions: BM-2023-D2-010, 168 h, time 7 day
[28] = Plasma protein binding in mouse incubated for 35 mins by LC-MS/MS analysis; format: ADME, cell-free; conditions: read-out: PPB (converted)
hERG (KCNH2) = hERG (KCNH2) (Homo sapiens, UniProt Q12809); experiment: Inhibition of hERG at 40 uM by whole cell Qpatch assay relative to control; format: toxicity
[29] = target: Voltage-gated inwardly rectifying potassium channel KCNH2 (Homo sapiens, UniProt Q12809); experiment: Inhibition of hERG by whole cell Qpatch assay; format: toxicity
Acinetobacter baumannii [30] = experiment: Antibacterial activity against multidrug-resistant Acinetobacter baumannii BM-2023-D2-010 infected in ICR mouse assessed as inhibition of bacterial growth by measuring its effective dose at iv after 1 and 5 hour of post-infection measured after 7 days; format: functional; conditions: BM-2023-D2-010, 168 h, time 7 day
[31] = AUC (0 to infinity) in ICR mouse at 20 mg/kg,iv administration measured upto 4 hrs by LC-MS/MS analysis; format: ADME, organism-based; conditions: in vivo
[32] = Clearance in ICR mouse at 20 mg/kg,iv administration measured upto 4 hrs by LC-MS/MS analysis; format: ADME, organism-based; conditions: in vivo
[33] = Half life in ICR mouse at 20 mg/kg,iv administration measured upto 4 hrs by LC-MS/MS analysis; format: ADME, organism-based; conditions: in vivo
[34] = MRT in ICR mouse at 20 mg/kg,iv administration measured upto 4 hrs by LC-MS/MS analysis; format: ADME, organism-based; conditions: in vivo
[35] = Volume of distribution at steady state in ICR mouse at 20 mg/kg,iv administration measured upto 4 hrs by LC-MS/MS analysis; format: ADME, organism-based; conditions: in vivo, read-out: Vdss

Chain of Voltage-gated inwardly rectifying potassium channel KCNH2 (Q12809 whole entry): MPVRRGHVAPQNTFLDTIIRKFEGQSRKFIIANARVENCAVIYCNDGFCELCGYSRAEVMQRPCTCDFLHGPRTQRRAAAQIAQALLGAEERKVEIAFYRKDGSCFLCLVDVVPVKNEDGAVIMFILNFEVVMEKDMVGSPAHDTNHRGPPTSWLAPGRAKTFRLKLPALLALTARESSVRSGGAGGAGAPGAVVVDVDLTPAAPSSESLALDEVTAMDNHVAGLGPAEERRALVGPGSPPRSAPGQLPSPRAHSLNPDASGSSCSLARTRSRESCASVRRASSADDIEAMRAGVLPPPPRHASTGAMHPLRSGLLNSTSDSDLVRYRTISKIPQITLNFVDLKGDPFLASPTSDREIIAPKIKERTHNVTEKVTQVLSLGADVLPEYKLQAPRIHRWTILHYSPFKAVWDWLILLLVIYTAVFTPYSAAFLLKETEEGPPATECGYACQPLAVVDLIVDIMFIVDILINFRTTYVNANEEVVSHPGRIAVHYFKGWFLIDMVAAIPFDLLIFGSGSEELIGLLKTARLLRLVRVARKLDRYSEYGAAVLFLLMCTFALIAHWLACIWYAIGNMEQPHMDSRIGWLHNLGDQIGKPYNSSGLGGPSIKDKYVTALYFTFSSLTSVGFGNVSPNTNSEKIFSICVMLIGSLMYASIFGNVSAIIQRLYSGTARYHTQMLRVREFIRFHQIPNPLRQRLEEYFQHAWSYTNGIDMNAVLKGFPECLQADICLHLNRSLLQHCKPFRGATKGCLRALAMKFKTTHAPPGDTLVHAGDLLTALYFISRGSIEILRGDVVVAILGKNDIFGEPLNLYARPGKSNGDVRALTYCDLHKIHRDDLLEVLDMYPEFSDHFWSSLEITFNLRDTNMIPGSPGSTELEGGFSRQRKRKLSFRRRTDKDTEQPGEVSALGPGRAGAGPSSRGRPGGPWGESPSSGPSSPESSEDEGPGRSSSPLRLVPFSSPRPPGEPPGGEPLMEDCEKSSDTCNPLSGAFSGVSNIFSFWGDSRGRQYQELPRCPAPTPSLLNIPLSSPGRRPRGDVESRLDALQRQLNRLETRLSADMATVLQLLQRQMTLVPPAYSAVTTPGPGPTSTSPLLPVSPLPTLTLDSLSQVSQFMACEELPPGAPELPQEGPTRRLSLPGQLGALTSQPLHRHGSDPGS
Chain of hERG (KCNH2) (Q12809 whole entry): as above

SMILES: Nc1nc(/C(=N/O[C@@H](C(=O)O)C2CCC(F)(F)CC2)C(=O)N[C@@H]2C(=O)N3C(C(=O)O)=C(CSCCNC(=O)c4ccc(O)c(O)c4Cl)CS[C@H]23)cs1.O=C(O)C(F)(F)F
- MIC (Escherichia coli [1]): 0.25 µg/mL
- MIC (Escherichia coli [2]): 0.5 µg/mL
- MIC (Escherichia coli [3]): 0.125 µg/mL
- MIC (Klebsiella pneumoniae [4]): 0.25 µg/mL
- MIC (Klebsiella pneumoniae [5]): 0.25 µg/mL
- MIC (Klebsiella pneumoniae [6]): 0.5 µg/mL
- MIC (Escherichia coli [7]): 0.25 µg/mL
- MIC (Pseudomonas aeruginosa [8]): ≤ 0.03 µg/mL
- MIC (Pseudomonas aeruginosa [9]): 8 µg/mL
- MIC (Pseudomonas aeruginosa [10]): 0.25 µg/mL
- MIC (Acinetobacter baumannii [11]): 0.5 µg/mL
- MIC (Acinetobacter baumannii [12]): 0.25 µg/mL
- MIC (Pseudomonas aeruginosa [13]): 1 µg/mL
- MIC (Pseudomonas aeruginosa [14]): 2 µg/mL
- MIC (Acinetobacter baumannii [15]): 0.25 µg/mL
- MIC (Acinetobacter baumannii [16]): 1 µg/mL
- MIC (Acinetobacter baumannii [17]): 0.5 µg/mL
- MIC (Acinetobacter baumannii [18]): 0.5 µg/mL
- MIC (Klebsiella pneumoniae [19]): 1 µg/mL
- MIC (Escherichia coli [20]): 1 µg/mL
- MIC (Escherichia coli [21]): 1 µg/mL
- MIC (Klebsiella pneumoniae [22]): 4 µg/mL
- MIC (Escherichia coli [23]): 0.25 µg/mL
- MIC (Escherichia coli [24]): ≤ 0.03 µg/mL
- MIC (Klebsiella pneumoniae [25]): 2 µg/mL
- MIC (Escherichia coli [26]): 0.06 µg/mL
- MIC (Acinetobacter baumannii [27]): 0.5 µg/mL
- fraction unbound at 35 min [28]: 0.105
- inhibition at 40 µM (hERG (KCNH2)): 6.67%
- IC50 [29]: > 40 µM
- ED50 (Acinetobacter baumannii [30]): 7.3 mg/kg

SMILES: Cc1ccc(S(=O)(=O)O)cc1.Nc1nc(/C(=N/O[C@@H](C(=O)O)C2CCC(F)(F)CC2)C(=O)N[C@@H]2C(=O)N3C(C(=O)O)=C(CSCCNC(=O)c4ccc(O)c(O)c4Cl)CS[C@H]23)cs1
- AUC(0-inf) [31]: 2160 ng·h/mL
- clearance [32]: 160 mL/min/kg
- half-life [33]: 19.8 min
- MRT [34]: 9 min
- Vd [35]: 1.44 L/kg
